Literature values as cited in patent US6582498B1, “Method of separating carbon dioxide from a gas mixture using a fluid dynamic instability” (Battelle Memorial Institute, priority 2001, dated 2003).

Compound: NCCO [MEA, monoethanolamine]
- eye irritation (for rabbit) (rabbit): 0.763 milligrams
- LD50 (oral for rat) (rat): 2,050 mg/kg
- LD50 (intraperitoneal for mouse) (mouse): 50 mg/kg
